Patent publication US11819549B2, “Pharmaceutical formulation comprising ciclesonide” (Boehringer Ingelheim Vetmedica GmbH, priority 2012, dated 2023)

Experiments:
[1] = buffering capacity of ciclesonide in the ethanolic solution; format: physicochemical; settings: ethanol/water solution acidified with HCl 0.1 M
Description: More HCl is added than needed to achieve […] in demineralized water alone due to the buffering capacity of ciclesonide.

[2] = chemical stability of ciclesonide in ethanolic formulation as a function of pHapp; format: physicochemical; settings: pHapp range of 4.0 to 4.6, no buffer
Text: To identify an appropriate pHapp in an ethanolic liquid formulation comprising ciclesonide is a challenge. On the one hand side the stability of ciclesonide is better at higher (more neutral) pH values. However, on the other hand, the pH should not be too high since at low [H^+] values already small amounts of contaminants and decomposition products can cause a relatively large change in pHapp. Furthermore, the use of a buffer for inhalable formulations is undesirable due to the administration of the buffer constituents to the lungs and the possibility of the buffer constituents forming a residue in the inhaler which may affect the spray characteristics of the aerosol. […] The addition of buffer is not necessary to create the advantageous formulation of the present invention.

[3] = taken orally; cited from earlier work

Row | Molecule | buffering capacity [1] [μmol/g ciclesonide] | chemical stability of ciclesonide [2] | potency relative to cortisol [3] [times] | potency relative to prednisone [3] [times]
1 | CC(C)C(=O)OCC(=O)C12OC(C3CCCCC3)OC1CC1C3CCC4=CC(=O)C=CC4(C)C3C(O)CC12C [ciclesonide, (11β,16α)-16,17-[[(R)-Cyclohexylmethylene]bis(oxy)]-11-hydroxy-21-(2-methyl-1-oxopropoxy)pregna-1,4-diene-3,20-dione] | −3.6 | chemically stable |  | 
2 | dexamethasone |  |  | 27 | 7
